The experiment deals with T1, hTRPA1 (Homo sapiens, UniProt O75762).
T1 construct: gene TRPA1
The experiment can be described thus: ratiometric calcium imaging and whole-cell patch clamp in CHO cells with inducible hTRPA1; non-induced cells as control. The experiment is classed as cell-based. A general note: The patch-clamp technique gives a direct electrical read-out from membranes.

Read-outs that look alike come from different tables or passages of the source.

T1 sequence (O75762 whole entry): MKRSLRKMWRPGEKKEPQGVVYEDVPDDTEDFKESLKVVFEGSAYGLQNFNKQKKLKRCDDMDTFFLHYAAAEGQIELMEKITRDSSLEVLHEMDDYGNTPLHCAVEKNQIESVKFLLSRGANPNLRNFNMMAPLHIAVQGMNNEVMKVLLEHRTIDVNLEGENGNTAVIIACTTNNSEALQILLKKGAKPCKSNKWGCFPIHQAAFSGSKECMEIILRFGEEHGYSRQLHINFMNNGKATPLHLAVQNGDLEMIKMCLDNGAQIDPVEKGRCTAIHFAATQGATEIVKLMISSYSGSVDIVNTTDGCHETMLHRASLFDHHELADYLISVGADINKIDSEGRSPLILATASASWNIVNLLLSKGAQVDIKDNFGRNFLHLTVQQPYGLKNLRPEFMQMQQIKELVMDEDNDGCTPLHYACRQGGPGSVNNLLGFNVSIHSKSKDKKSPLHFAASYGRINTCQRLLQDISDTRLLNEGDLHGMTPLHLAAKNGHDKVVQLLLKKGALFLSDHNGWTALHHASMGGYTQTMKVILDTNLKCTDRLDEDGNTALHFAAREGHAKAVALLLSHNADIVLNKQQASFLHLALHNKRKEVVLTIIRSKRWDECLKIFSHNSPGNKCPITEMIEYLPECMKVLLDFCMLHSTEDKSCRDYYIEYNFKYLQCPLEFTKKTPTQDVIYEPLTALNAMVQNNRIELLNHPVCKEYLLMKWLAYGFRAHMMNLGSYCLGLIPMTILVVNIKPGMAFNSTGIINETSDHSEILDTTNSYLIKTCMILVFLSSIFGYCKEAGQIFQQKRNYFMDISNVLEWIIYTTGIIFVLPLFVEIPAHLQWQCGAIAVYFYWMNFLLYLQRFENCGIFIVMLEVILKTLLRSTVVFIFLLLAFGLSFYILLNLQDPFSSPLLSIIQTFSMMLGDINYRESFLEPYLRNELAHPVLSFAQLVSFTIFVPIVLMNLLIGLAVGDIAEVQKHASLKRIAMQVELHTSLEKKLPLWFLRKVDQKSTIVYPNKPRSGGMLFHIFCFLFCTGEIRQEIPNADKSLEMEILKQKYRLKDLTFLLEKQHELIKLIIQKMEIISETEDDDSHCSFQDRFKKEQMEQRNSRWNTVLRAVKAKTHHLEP

For the molecule `CC(C)c1ccc(C=O)cc1` [cuminaldehyde], the EC50 (commonly the concentration at which the effect is half-maximal) (read-out: EC50) was 720 µM.

On to `COc1ccc(C=O)cc1` [p-anisaldehyde], for which the EC50 is 910 µM. Turning to `C/C=C(\C)C=O` [tiglic aldehyde], for the setting “read-out: EC50”, the EC50 is 1490 µM.
